The results in this text go back to patent US20130123367A1, “VINYLOGOUS CHALCONE DERIVATIVES AND THEIR MEDICAL USE” (MEDIZINISCHE UNIVERSITAT WIEN, priority 2010, published 2013).

Assay type in all cases: cell-based
In test [1] the test system is melanoma cell line SK-MEL 5. Nature of the test: Crystal violet assay, SK-MEL 5. The conditions noted are these: Homo sapiens, n = 3. The procedure: (§1) For quantification, cells are treated with crystal violet, a dye that stains proteins. After washing away of excess dye, the remaining crystal violet is dissolved in a sodium citrate solution. The solution is analyzed photometrically at 590 nm. The optical density of this solution depends on the concentration of crystal violet and therefore on the amount of cells. […] To reduce effects of evaporation, only the inner 60 wells of 96-well plates (coated with 0.1% gelatine solution for studies with HUVEC) were used for experiments.
(§2) Cells were treated with 2 μl of the working solution 24 h after seeding. Final compound concentrations in the well were 10 μM for the first round of screening. The final DMSO concentration was 0.5%. […] After finishing the addition of compounds, the T0-plate was stained with crystal violet for giving the cell density at time point zero. […] After air drying of the plates the crystal violet on the cells was dissolved in 100 μl of sodium citrate solution, and the absorption was measured with a plate reader at 590 nm.
(§3) Mean values were corrected with the absorption of stained medium and the corrected absorption of T0 cells. Cell growth was calculated relative to DMSO control for data comparison. IC50 values (50% inhibition of cell growth) were determined with GraphPad Prism® (Version 4.03) using nonlinear regression (sigmoidal dose-response with variable slope). […]

For test [2], the system named is colon carcinoma cell line HCT116p53ko. Nature of the test: Crystal violet assay, HCT116p53ko. The conditions noted are these: n = 3. The procedure:
as §1, §2, §3

Test [3] deals with colon carcinoma cell line HCT116p53 wild type. Nature of the test: Crystal violet assay, HCT116p53wt. The conditions noted are these: n = 3. The procedure: as §1, §2, §3
In test [4] the test system is SW480 cells. Nature of the test: Cell cycle analysis by flow cytometry. The conditions noted are these: 0.03, 0.1 or 0.3 μM compared to DMSO control; FIG. 5. The procedure: FIG. 5: Cell cycle analysis using SW480 cells treated with 0 μM (control using DMSO), 0.03 μM, 0.1 μM or 0.3 μM of compound 22.
To quantify the cellular DNA content, DNA is visualized by staining with propidium iodide (PI), a fluorescent dye which binds to double stranded DNA. To allow PI to enter cells they are permeabilized with Triton-X. The fluorescence intensity per cell, which correlates with its DNA content, is measured by flow cytometry. The G0/G1 peak represents cells in the usual diploid state. Apoptotic cells are characterized through a peak in the FACS histogram below the G0/G1 peak (sub G1) (Nicoletti I et al. J. Immunol. Methods 1991, 139 (2), 271-279):
Since cells in different phases of the cell cycle have a different DNA content this method can also be used for measuring the amount of cells in different stages of the cell cycle. Cells were seeded in 12-well plates at a density 10 fold more than used in 96-well plates in 2 ml growth media. Cells were incubated for one day, until they reached 50-70% confluence. Then they were stimulated with different concentrations of the test compounds, according to the data available from proliferation assays. […]
Cells were measured by flow cytometry 50-150 events/second with a total of 10 000 events using channel FL2-A. Data were analyzed with CellQuest Pro™. Mean values from different repeats were analyzed using GraphPad Prism® 4.03.
In general terms: A flow cytometer gives signals particle by particle.

Structures are written as SMILES.

On to `COc1ccccc1/C=C/C=C/C(=O)c1cc(OC)c(OC)c(OC)c1` [Compound 1, 5-(2-Methoxyphenyl)-1-(3′,4′,5′-trimethoxyphenyl)-2,4-pentadiene-1-one], for which the IC50 (as a rule, the midpoint of a concentration-inhibition curve) in test [1] was determined as 150 nM; in test [2] it was 100 nM; in test [3] it was 280 nM.
Consider `CCOc1ccccc1C(=O)/C=C/c1ccc2ccccc2c1` [Compound 22, 3-(2-Naphthyl)-1-(2′-ethoxyphenyl)-2-propene-1-one], for which, in test [4], the ““DNA>4N” portion (inhibition of cell division)” value is on record as “increase” and the ““Sub G1” portion (induction of apoptosis)” value is reported as “increase”.
